One experiment deals with A549 cells. Put plainly: Proliferation Assay (A549 viability, Cell Titer Fluor, 72 hours). The settings on record: read-out: EC50 against A549 cell proliferation. Format: cell-based. As to the method:
A549 cells were routinely maintained in RPMI 1640 media (Gibco catalog number 11875-093) supplemented with 10% dialyzed fetal bovine serum using a humidified incubator (37° C., 5% CO2 and ambient O2). In preparation for the viability assay, cells were inoculated into 384-well black CulturPlates (Perkin Elmer) at a density of 1000 cells/well in a volume of 40 μl. Following a 24-hour incubation at 37° C., 5% CO2 and ambient 02, cells were treated with compound (10 μl) in a final DMSO concentration of 0.5% (v/v). The microplates were then incubated for 72 hours (37° C., 5% CO2 and ambient O2). Cell Titer Fluor (Promega) was subsequently added (10 μl of 6× reagent) and mixed for 15 minutes at room temperature. The plates were then incubated for 30 minutes (37° C., 5% CO2 and ambient O2) and fluorescence was subsequently read on the Perkin Elmer Envision plate reader. EC50 values were calculated using a four-parameter logistic curve fit.

Experiment [1] has as its target T1, GLS1 (purified recombinant human GAC) (Homo sapiens, UniProt O94925).
T1 sequence (O94925 55-598 isoform O94925-3 limits assumed): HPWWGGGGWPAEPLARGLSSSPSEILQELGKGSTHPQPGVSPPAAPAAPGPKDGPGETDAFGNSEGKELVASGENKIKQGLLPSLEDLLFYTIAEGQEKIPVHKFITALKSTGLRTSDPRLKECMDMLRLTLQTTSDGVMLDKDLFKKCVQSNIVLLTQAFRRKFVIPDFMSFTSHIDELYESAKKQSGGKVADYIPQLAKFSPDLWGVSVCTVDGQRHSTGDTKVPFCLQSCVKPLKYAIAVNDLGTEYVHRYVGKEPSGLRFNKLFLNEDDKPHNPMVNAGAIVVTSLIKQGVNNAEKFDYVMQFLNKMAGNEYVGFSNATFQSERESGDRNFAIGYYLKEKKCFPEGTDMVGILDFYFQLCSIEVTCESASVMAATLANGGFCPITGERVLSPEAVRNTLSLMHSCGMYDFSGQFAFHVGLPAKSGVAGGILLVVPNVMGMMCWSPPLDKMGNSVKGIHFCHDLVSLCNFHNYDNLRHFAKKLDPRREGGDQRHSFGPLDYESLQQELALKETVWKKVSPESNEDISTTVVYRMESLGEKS
Put plainly: GLS1 Enzymatic Activity Assay (dual-coupled enzymatic assay). The settings on record: 50 mM potassium phosphate, 1 mM glutamine, read-out: IC50 against GLS1. Format: biochemical. Here is the method:
GLS1 Enzymatic Activity Assay
The inhibition of purified recombinant human GAC by varying concentrations of inhibitors is assessed via a dual-coupled enzymatic assay. The glutamate produced by the glutaminase reaction is used by glutamate oxidase to produce α-ketoglutarate, ammonia, and hydrogen peroxide, with this hydrogen peroxide subsequently being used by horseradish peroxidase to produce resorufin in the presence of Amplex UltraRed. The assay buffer consisted of 50 mM HEPES (pH 7.4), 0.25 mM EDTA and 0.1 mM Triton X-100. GAC was incubated with potassium phosphate (10 minutes at room temperature) prior to incubation with inhibitor (10 minutes at room temperature). The final reaction conditions were as follows: 2 nM GAC, 50 mM potassium phosphate, 100 mU/ml glutamate oxidase (Sigma), 1 mM glutamine (Sigma), 100 mU/ml horseradish peroxidase (Sigma), 75 μM Amplex UltraRed (Life Technologies), and 1% (v/v) DMSO. The production of resorufin was monitored on a Perkin Elmer Envision plate reader (excitation 530 nm, emission 590 nm) either in a kinetics or endpoint mode (at 20 minutes). IC50 values were calculated using a four-parameter logistic curve fit.

Like-named read-outs stand apart in the source and are kept apart here.

As to `Nc1nnc(C2CCCN(c3ccc(NC(=O)Cc4ccccc4)nn3)C2)s1` (centres unmarked) [Example 1, N-(6-(3-(5-Amino-1,3,4-thiadiazol-2-yl)piperidin-1-yl)pyridazin-3-yl)-2-phenylacetamide], the EC50 with A549 cells (Homo sapiens) was in the range of 500 to 5000 nM. Also, the IC50 – broadly, the concentration that gives 50% inhibition – in experiment [1] was 100 to 500 nM.
On the same counts, the results for `Cc1cc(OC2CC(F)(F)C2)cc(CC(=O)Nc2ccc(C3CCN(c4nnc(C(=O)NCc5cc(C(F)(F)F)ccn5)s4)C3)nn2)n1` (centres unmarked) [Example 52, 5-(3-(6-(2-(4-(3,3-difluorocyclobutoxy)-6-methylpyridin-2-yl)acetamido)pyridazin-3-yl)pyrrolidin-1-yl)-N-((4-(trifluoromethyl)pyridin-2-yl)methyl)-1,3,4-thiadiazole-2-carboxamide] are under 100 nM and under 100 nM.
On the same counts, the results for `O=C(Cc1ccccn1)Nc1ccc([C@@H]2CCN(c3nnc(C(=O)NCc4ccccn4)s3)C2)nn1` [Example 46, (R)-5-(3-(6-(2-(pyridin-2-yl)acetamido)pyridazin-3-yl)pyrrolidin-1-yl)-N-(pyridin-2-ylmethyl)-1,3,4-thiadiazole-2-carboxamide] are under 100 nM and under 100 nM.
On the same counts, the results for `CNC(=O)c1nnc(N2CCC(c3ccc(NC(=O)Cc4cn(-c5cccc(OC(F)(F)F)c5)cn4)nn3)C2)s1` (centres unmarked) [Example 40, N-methyl-5-(3-(6-(2-(1-(3-(trifluoromethoxy)phenyl)-1H-imidazol-4-yl)acetamido)pyridazin-3-yl)pyrrolidin-1-yl)-1,3,4-thiadiazole-2-carboxamide] are under 100 nM and under 100 nM.
Take “2-(thiazol-4-yl)-N-(5-(1-(6-(2-(3-(trifluoromethoxy)phenyl)acetamido)pyridazin-3-yl)pyrrolidin-3-yl)-1,3,4-thiadiazol-2-yl)acetamide [Example 31]”: the EC50 in the experiment on A549 cells fell in the range of 100 to 500 nM. Besides, the IC50 in experiment [1] was under 100 nM.
As for `CC(=O)Nc1nnc(C2CCN(c3ccc(NC(=O)Cc4ccccn4)nn3)C2)s1` (centres unmarked) [Example 12, N-(6-(3-(5-acetamido-1,3,4-thiadiazol-2-yl)pyrrolidin-1-yl)pyridazin-3-yl)-2-(pyridin-2-yl)acetamide], the IC50 in experiment [1] fell in the range of 100 to 500 nM.
As for `O=C(Cc1ccccn1)Nc1ccc(N2CCC(c3nnc(NC(=O)Cc4ccccn4)s3)C2)nn1` (centres unmarked) [Example 9, 2-(pyridin-2-yl)-N-(6-(3-(5-(2-(pyridin-2-yl)acetamido)-1,3,4-thiadiazol-2-yl)pyrrolidin-1-yl)pyridazin-3-yl)acetamide], in the experiment with A549 cells (Homo sapiens), the EC50 lay in the range of 500 to 5000 nM. Further, the IC50 in experiment [1] was under 100 nM.
With “N-(pyridin-2-ylmethyl)-5-(1-(6-(2-(3-(trifluoromethoxy)phenyl)acetamido)pyridazin-3-yl)pyrrolidin-3-yl)-1,3,4-thiadiazole-2-carboxamide-2,2,2-trifluoroacetate [Example 10]”, in the experiment on A549 cells, the EC50 fell in the range of 100 to 500 nM. For the same compound, the IC50 in experiment [1] was under 100 nM.
In the case of `CNC(=O)c1nnc(N2CCC(c3ccc(NC(=O)Cc4ccccn4)nn3)C2)s1` (centres unmarked) [Example 41, N-methyl-5-(3-(6-(2-(pyridin-2-yl)acetamido)pyridazin-3-yl)pyrrolidin-1-yl)-1,3,4-thiadiazole-2-carboxamide], in the experiment on A549 cells (Homo sapiens), the EC50 fell in the range of 100 to 500 nM. The IC50 in experiment [1] fell in the range of 100 to 500 nM.
Take `O=C(Cc1ccccc1)Nc1ccc(N2CCCC(c3nnc(NC(=O)Cc4ccccn4)s3)C2)nn1` (centres unmarked) [Example 3, 2-Phenyl-N-(6-(3-(5-(2-(pyridin-2-yl)acetamido)-1,3,4-thiadiazol-2-yl)piperidin-1-yl)pyridazin-3-yl)acetamide]: the EC50 in the experiment with A549 cells (Homo sapiens) was in the range of 100 to 500 nM. Also, the concentration for half-maximal inhibition (IC50) in experiment [1] is under 100 nM.
For `O=C(Cc1cccc(OC(F)(F)F)c1)Nc1ccc(N2CCC(n3cc(C(=O)NCc4ccccn4)nn3)C2)nn1` (centres unmarked) [Example 8, N-(pyridin-2-ylmethyl)-1-(1-(6-(2-(3-(trifluoromethoxy)phenyl)acetamido)pyridazin-3-yl)pyrrolidin-3-yl)-1H-1,2,3-triazole-4-carboxamide], in the experiment on A549 cells (Homo sapiens), the EC50 is 500 to 5000 nM. The IC50 in experiment [1] was in the range of 100 to 500 nM.
On to `O=C(Cc1ccccn1)Nc1nnc(C2CCN(c3nnc(NC(=O)Cc4cccc(OC(F)(F)F)c4)s3)C2)s1` (centres unmarked) [Example 32, 2-(pyridin-2-yl)-N-(5-(1-(5-(2-(3-(trifluoromethoxy)phenyl)acetamido)-1,3,4-thiadiazol-2-yl)pyrrolidin-3-yl)-1,3,4-thiadiazol-2-yl)acetamide], for which the EC50 in the experiment with A549 cells (Homo sapiens) lay within 500 to 5000 nM. In addition, the IC50 in experiment [1] is 100 to 500 nM.
Consider `CC(=O)Nc1nnc(C2CCCN(c3nnc(NC(=O)Cc4cccc(OC(F)(F)F)c4)s3)C2)s1` (centres unmarked) [Example 25, N-(5-(3-(5-acetamido-1,3,4-thiadiazol-2-yl)piperidin-1-yl)-1,3,4-thiadiazol-2-yl)-2-(3-(trifluoromethoxy)phenyl)acetamide], for which the EC50 in the experiment with A549 cells (Homo sapiens) is 500 to 5000 nM. The IC50 in experiment [1] fell in the range of 100 to 500 nM.
`Cc1cc(OC2CC(F)(F)C2)cc(CC(=O)Nc2ccc(C3CCN(c4nnc(C(=O)NCc5ccccn5)s4)C3)nn2)n1` (centres unmarked) [Example 51, 5-(3-(6-(2-(4-(3,3-difluorocyclobutoxy)-6-methylpyridin-2-yl)acetamido)pyridazin-3-yl)pyrrolidin-1-yl)-N-(pyridin-2-ylmethyl)-1,3,4-thiadiazole-2-carboxamide]: the EC50 with A549 cells (Homo sapiens) was under 100 nM. For the same compound, the IC50 in experiment [1] was under 100 nM.
`O=C(Nc1ccc(N2CCC(n3cc(C(=O)NCc4ccccn4)nn3)C2)nn1)OCc1ccccc1` (centres unmarked) [Example 5, Benzyl (6-(3-(4-((pyridin-2-ylmethyl)carbamoyl)-1H-1,2,3-triazol-1-yl)pyrrolidin-1-yl)pyridazin-3-yl)carbamate]: the EC50 with A549 cells (Homo sapiens) lay within 500 to 5000 nM. The half-maximal inhibitory concentration (IC50) in experiment [1] was in the range of 500 to 5000 nM.
Consider `Nc1nnc(C2CCCN(c3ccc(NC(=O)Cc4cccc(OC(F)(F)F)c4)nn3)C2)s1` (centres unmarked) [Example 13, N-(6-(3-(5-amino-1,3,4-thiadiazol-2-yl)piperidin-1-yl)pyridazin-3-yl)-2-(3-(trifluoromethoxy)phenyl)acetamide], for which the EC50 in the experiment with A549 cells (Homo sapiens) was in the range of 500 to 5000 nM. Also, in experiment [1], the IC50 lay within 100 to 500 nM.
For `O=C(Cc1cccc(OC(F)(F)F)c1)Nc1ccc(N2CCC(c3nnc(NC(=O)Cc4ccccn4)s3)C2)nn1` (centres unmarked) [Example 17, 2-(pyridin-2-yl)-N-(5-(1-(6-(2-(3-(trifluoromethoxy)phenyl)acetamido)pyridazin-3-yl)pyrrolidin-3-yl)-1,3,4-thiadiazol-2-yl)acetamide 2,2,2-trifluoroacetate], in the experiment with A549 cells (Homo sapiens), the EC50 was under 100 nM. For the same compound, the IC50 in experiment [1] is under 100 nM.
Consider `O=C(Cc1ccccn1)Nc1nnc(C2CCCN(c3nnc(NC(=O)Cc4cccc(OC(F)(F)F)c4)s3)C2)s1` (centres unmarked) [Example 26, 2-(pyridin-2-yl)-N-(5-(1-(5-(2-(3-(trifluoromethoxy)phenyl)acetamido)-1,3,4-thiadiazol-2-yl)piperidin-3-yl)-1,3,4-thiadiazol-2-yl)acetamide], for which the EC50 in the experiment on A549 cells (Homo sapiens) lay in the range of 100 to 500 nM. The IC50 in experiment [1] was under 100 nM.
For `O=C(Cc1ccccc1)Nc1ccc(N2CCCC(c3nnc(NC(=O)Cc4ccccc4)s3)C2)nn1` (centres unmarked) [Example 2, 2-Phenyl-N-(6-(3-(5-(2-phenylacetamido)-1,3,4-thiadiazol-2-yl)piperidin-1-yl)pyridazin-3-yl)acetamide] the same measures were 100 to 500 nM and under 100 nM.
On the same counts, the results for `O=C(Cc1cccc(OC(F)(F)F)c1)Nc1ccc(N2CCC(c3nnc(NC(=O)CC4CCCCO4)s3)C2)nn1` (centres unmarked) [Example 34, 2-(tetrahydro-2H-pyran-2-yl)-N-(5-(1-(6-(2-(3-(trifluoromethoxy)phenyl)acetamido)pyridazin-3-yl)pyrrolidin-3-yl)-1,3,4-thiadiazol-2-yl)acetamide] are under 100 nM and under 100 nM.
In the case of `CC(=O)Nc1nnc(C2CCCN(c3ccc(NC(=O)Cc4cccc(OC(F)(F)F)c4)nn3)C2)s1` (centres unmarked) [Example 15, N-(6-(3-(5-acetamido-1,3,4-thiadiazol-2-yl)piperidin-1-yl)pyridazin-3-yl)-2-(3-(trifluoromethoxy)phenyl)acetamide], the EC50 in the experiment with A549 cells (Homo sapiens) lay in the range of 100 to 500 nM. Also, the IC50 in experiment [1] was under 100 nM.

The record behind these values is patent US10738043B2, “GLS1 inhibitors for treating disease” (Board of Regents, The University of Texas System, priority 2015, dated 2020).
